Experimental data reported in ChEMBL document CHEMBL1159148, “Myo-inositol 1,4,6-trisphosphate: A new synthetic Ca2+-mobilising inositol phosphate” (Bioorg Med Chem Lett, 1993).
pEC50: −log10 of the molar value.

Species on record: Oryctolagus cuniculus
Assay: Compound was evaluated for its ability to release [Ca2+] from permeabilised rabbit platelets
Type: functional

SMILES	pEC50
O=P(O)(O)O[C@@H]1[C@H](O)[C@H](O)[C@@H](OP(=O)(O)O)[C@H](OP(=O)(O)O)[C@H]1O (stereo in doubt; form 2) [INS(1,4,5)P3]	5.68
O=P(O)(O)O[C@@H]1[C@H](O)[C@H](O)[C@@H](OP(=O)(O)O)[C@H](OP(=O)(O)O)[C@H]1O (stereo in doubt; form 1) [INS(1,4,5)P3]	6.74
